Measured values published in patent publication US20240166660A1, “KRAS G12C INHIBITORS” (BeiGene Switzerland GmbH, priority 2021, published 2024).

Molecular target: KRAS (aa 1-169) G12C, C51S, C80L, C118S (Homo sapiens (Human), UniProt P01116, C118S/C51S/C80L/G12C)
Assay: Biochemical functional assay: SOS1-mediated nucleotide exchange of GDP-loaded KRAS G12C, binding to GST-cRaf RBD, FRET readout
Conditions: 3 hrs pre-incubation with compound at 24° C., SOS1, GTPyS, inhibition of nucleotide exchange
Experimental: Biochemical Functional Assay
The KRAS (aa 1-169) G12C, C51S, C80L, C118S with a His-tag was expressed, purified and loaded with GDP in house. All protein and substrate solutions were prepared in assay buffer containing 25 mM HEPES pH7.5, 10 mM MgCl2, and 0.01% Triton X-100. Purified GDP-loaded KRAS (aa 1-169) G12C, C51S, C80L, C118S protein was pre-incubated with a serially diluted compound at 24° C. for 3 hrs. Purified SOS1 (aa 564-1049) protein, GTPyS (Sigma) and GST-cRaf RBD (aa 1-149) were then added to each well and incubated at 24° C. for additional 3 hrs. […] Following the incubation, Mab Anti-6HIS-T cryptate (Cisbio) and Mab Anti GST-XL665 (Cisbio) were added and further incubated at 24° C. for 3 hrs. The binding interaction between active GTPyS KRAS G12C and GST-cRaf RBD brings the Tb and XL665 into close proximity enabling an increased FRET signal (Ex337 nm, Em665 nm/620 nm). The inhibition percentage of nucleotide exchange reaction in presence of increasing concentrations of compounds was calculated based on the ratio of fluorescence at 665 nm to that at 620 nm detected on a BMG PHERAstar FSX instrument. The IC50 value of each compound was calculated from fitting the data to the four-parameter logistic model by Dotmatics.

Chain of KRAS (aa 1-169) G12C, C51S, C80L, C118S (P01116 other isoform, or with tags, fused parts or gaps G12C/C51S/C80L/C118S): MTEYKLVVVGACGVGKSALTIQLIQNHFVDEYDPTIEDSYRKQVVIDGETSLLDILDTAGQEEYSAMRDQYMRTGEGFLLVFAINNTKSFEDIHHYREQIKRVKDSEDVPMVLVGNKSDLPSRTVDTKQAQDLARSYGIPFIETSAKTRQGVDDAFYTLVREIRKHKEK

Compound	IC50 [nM]
C=CC(=O)N1CCN(c2nc(OC[C@@H]3CCCN3C)nc3cc(-c4cccc5cccc(Cl)c45)c4c(c23)OCCC4)[C@@H](C)C1 [Compound B63, 1-((S)-4-(5-(8-chloronaphthalen-1-yl)-8-(((S)-1-methylpyrrolidin-2-yl)methoxy)-3,4-dihydro-2H-pyrano[2,3-f]quinazolin-10-yl)-3-methylpiperazin-1-yl)prop-2-en-1-one]	148
C=C(F)C(=O)N1CCN(c2nc(OC[C@H]3CCCN3C)nc3cc(-c4cccc5cccc(Cl)c45)c4c(c23)OCCC4)C[C@@H]1CC#N (single isomer, unassigned) [Compound B104]	8.16
C=CC(=O)N1CCN(c2ncnc3cc(-c4c(C)cccc4C)c4c(c23)OCCC4)C[C@@H]1CC#N [Compound A24, (S)-2-(1-acryloyl-4-(5-(2,6-dimethylphenyl)-3,4-dihydro-2H-pyrano[2,3-f]quinazolin-10-yl)piperazin-2-yl)acetonitrile]	262
C=C(F)C(=O)N1CCN(c2nc(O[C@@H]3CCCC[C@H]3N(C)C)nc3cc(-c4cccc5cccc(Cl)c45)c4c(c23)OCCC4)C[C@@H]1CC#N [Compound B61, 2-((S)-4-(5-(8-chloronaphthalen-1-yl)-8-(((1R,2R)-2-(dimethylamino)cyclohexyl)oxy)-3,4-dihydro-2H-pyrano[2,3-f]quinazolin-10-yl)-1-(2-fluoroacryloyl)piperazin-2-yl)acetonitrile]	186
C=C(F)C(=O)N1CCN(c2nc(OC[C@H]3C[C@@H](OC)CN3C)nc3cc(-c4cccc5cccc(Cl)c45)c4c(c23)OCCC4)C[C@@H]1CC#N (single isomer, unassigned) [Compound B106]	9.54
C=CC(=O)N1C[C@H](C)N(c2nc(OC[C@@H]3CCCN3C)nc3cc(-c4c(Cl)c(C)cc5[nH]ncc45)c4ccoc4c23)C[C@H]1C [Compound B62, 1-((2R,5S)-4-(4-(5-chloro-6-methyl-1H-indazol-4-yl)-7-(((S)-1-methylpyrrolidin-2-yl)methoxy)furo[2,3-f]quinazolin-9-yl)-2,5-dimethylpiperazin-1-yl)prop-2-en-1-one]	642
C=C(F)C(=O)N1CCN(c2nc(OC[C@@H]3CCCN3C)nc3cc(-c4c(Cl)c(C)cc5[nH]ncc45)c4c(c23)OCCC4)C[C@@H]1CC#N (single isomer, unassigned; atropisomer 2) [Compound B13]	325
C=C(F)C(=O)N1CCN(c2nc(N3CC(CC#N)(N(C)C)C3)nc3cc(-c4cccc5cccc(Cl)c45)c4c(c23)OCCC4)C[C@@H]1CC#N [Compound B90, (S)-2-(1-(5-(8-chloronaphthalen-1-yl)-10-(3-(cyanomethyl)-4-(2-fluoroacryloyl)piperazin-1-yl)-3,4-dihydro-2H-pyrano[2,3-f]quinazolin-8-yl)-3-(dimethylamino)azetidin-3-yl)acetonitrile]	37
C=C(F)C(=O)N1CCN(c2nc(OC[C@@H]3CCCN3C)nc3cc(-c4c(F)cccc4F)c4ccoc4c23)C[C@@H]1CC#N [Compound B38, 2-((S)-4-(4-(2,6-difluorophenyl)-7-(((S)-1-methylpyrrolidin-2-yl)methoxy)furo[2,3-f]quinazolin-9-yl)-1-(2-fluoroacryloyl)piperazin-2-yl)acetonitrile]	913
C=C(F)C(=O)N1CCN(c2nc(N3CC(COC)(N(C)C)C3)nc3cc(-c4cccc5cccc(Cl)c45)c4c(c23)OCCC4)C[C@@H]1CC#N [Compound B86, (S)-2-(4-(5-(8-chloronaphthalen-1-yl)-8-(3-(dimethylamino)-3-(methoxymethyl)azetidin-1-yl)-3,4-dihydro-2H-pyrano[2,3-f]quinazolin-10-yl)-1-(2-fluoroacryloyl)piperazin-2-yl)acetonitrile]	19
C=C(F)C(=O)N1CCN(c2nc(OC[C@@H]3CCCN3C)nc3cc(-c4cccc5cccc(C)c45)c4c(c23)OCCC4)C[C@@H]1CC#N [Compound B43, 2-((S)-1-(2-fluoroacryloyl)-4-(5-(8-methylnaphthalen-1-yl)-8-(((S)-1-methylpyrrolidin-2-yl)methoxy)-3,4-dihydro-2H-pyrano[2,3-f]quinazolin-10-yl)piperazin-2-yl)acetonitrile]	13
C=CC(=O)N1CCN(c2ncnc3cc(-c4c(Cl)c(Cl)cc5[nH]ncc45)c4c(c23)OCCC4)C[C@@H]1CC#N [Compound A29, 2-((2S)-1-acryloyl-4-(5-(5,6-dichloro-1H-indazol-4-yl)-3,4-dihydro-2H-pyrano[2,3-f]quinazolin-10-yl)piperazin-2-yl)acetonitrile]	9.3
C=C(F)C(=O)N1CCN(c2nc(OCC3C[C@@H](OC)CN3C)nc3cc(-c4cccc5cccc(Cl)c45)c4c(c23)OCCC4)C[C@@H]1CC#N (single isomer, unassigned) [Compound B95]	11.5
C=C(F)C(=O)N1CCN(c2nc(OC[C@@H]3CCCN3C)nc3cc(-c4cccc5cccc(Cl)c45)c4c(c23)OCCC4)C[C@@H]1CC#N (single isomer, unassigned) [Compound B68]	177
C=CC(=O)N1CCN(c2ncnc3cc(-c4cccc5cccc(Cl)c45)c4c(c23)OCCC4)C[C@@H]1CC#N [Compound A32, (S)-2-(1-acryloyl-4-(5-(8-chloronaphthalen-1-yl)-3,4-dihydro-2H-pyrano[2,3-f]quinazolin-10-yl)piperazin-2-yl)acetonitrile]	12
C=C(F)C(=O)N1CCN(c2nc(OCC3C[C@@H](OC)CN3C)nc3cc(-c4cccc5cccc(Cl)c45)c4c(c23)OCCC4)C[C@@H]1CC#N (single isomer, unassigned) [Compound B97]	508
C=C(F)C(=O)N1CCN(c2nc(OC[C@H]3CCCN3C)nc3cc(-c4cccc5cccc(Cl)c45)c4c(c23)OCCC4)C[C@@H]1CC#N (single isomer, unassigned) [Compound B105]	290
C=C(F)C(=O)N1CCN(c2nc(N3CC(CC#N)(N(C)C)C3)nc3cc(-c4cccc5cccc(Cl)c45)c4ccoc4c23)C[C@@H]1CC#N [Compound B80, (S)-2-(4-(4-(8-chloronaphthalen-1-yl)-7-(3-(cyanomethyl)-3-(dimethylamino)azetidin-1-yl)furo[2,3-f]quinazolin-9-yl)-1-(2-fluoroacryloyl)piperazin-2-yl)acetonitrile]	222
C=CC(=O)N1CCN(c2nc(OC[C@@H]3CCCN3C)nc3cc(-c4cccc5cccc(Cl)c45)c4ccoc4c23)[C@@H](C)C1 [Compound B49, 1-((S)-4-(4-(8-chloronaphthalen-1-yl)-7-(((S)-1-methylpyrrolidin-2-yl)methoxy)furo[2,3-f]quinazolin-9-yl)-3-methylpiperazin-1-yl)prop-2-en-1-one]	128
C=CC(=O)N1CCN(c2nc(OC[C@@H]3CCCN3C)nc3cc(-c4ccccc4F)c4ccoc4c23)CC1 [Compound B45, (S)-1-(4-(4-(2-fluorophenyl)-7-((1-methylpyrrolidin-2-yl)methoxy)furo[2,3-f]quinazolin-9-yl)piperazin-1-yl)prop-2-en-1-one]	2020
C=C(F)C(=O)N1CCN(c2nc(OCC3C[C@@H](OC)CN3C)nc3cc(-c4cccc5cccc(Cl)c45)c4c(c23)OCCC4)C[C@@H]1CC#N (single isomer, unassigned) [Compound B96]	140
C=CC(=O)N1CCN(c2ncnc3cc(-c4cccc5ccccc45)c4c(c23)OCC=C4)C[C@@H]1CC#N [Compound A8, (S)-2-(1-acryloyl-4-(5-(naphthalen-1-yl)-2H-pyrano[2,3-f]quinazolin-10-yl)piperazin-2-yl)acetonitrile]	82.1
C=C(F)C(=O)N1CCN(c2nc(OC3CN(C)C3)nc3cc(-c4cccc5cccc(Cl)c45)c4c(c23)OCCC4)C[C@@H]1CC#N [Compound B64, (S)-2-(4-(5-(8-chloronaphthalen-1-yl)-8-((1-methylazetidin-3-yl)oxy)-3,4-dihydro-2H-pyrano[2,3-f]quinazolin-10-yl)-1-(2-fluoroacryloyl)piperazin-2-yl)acetonitrile]	247
C=CC(=O)N1CCN(c2ncnc3cc(-c4c(O)cccc4F)c4c(c23)OC(C)(C)CC4)C[C@@H]1CC#N [Compound A3, 2-((2S)-1-acryloyl-4-(5-(2-fluoro-6-hydroxyphenyl)-2,2-dimethyl-3,4-dihydro-2H-pyrano[2,3-f]quinazolin-10-yl)piperazin-2-yl)acetonitrile]	559
C=CC(=O)N1CCN(c2nc(O[C@H]3CN(C)C[C@@H]3OC)nc3cc(-c4c(Cl)c(C)cc5[nH]ncc45)c4c(c23)OCCC4)C[C@@H]1CC#N [Compound B3, 2-((2S)-1-acryloyl-4-(5-(5-chloro-6-methyl-1H-indazol-4-yl)-8-(((3S,4S)-4-methoxy-1-methylpyrrolidin-3-yl)oxy)-3,4-dihydro-2H-pyrano[2,3-f]quinazolin-10-yl)piperazin-2-yl)acetonitrile]	6.5
C=CC(=O)N1CCN(c2ncnc3cc(-c4c(Cl)ccc5[nH]ncc45)c4c(c23)OCCC4)C[C@@H]1CC#N (single isomer, unassigned) [Compound A14]	79.4
C=C(F)C(=O)N1CCN(c2nc(OC[C@@H]3CCCN3C)nc3cc(-c4c(Cl)c(C)cc5[nH]ncc45)c4c(c23)OCCC4)C[C@@H]1CC#N (single isomer, unassigned; atropisomer1) [Compound B12]	4.6
